Measurements taken from PubChem BioAssay AID248 (DTP/NCI, 2004).
Inconclusive results and toxic doses are left out. Rule as the data show it: active = T/C of 150% or more; inactive = T/C below 125%. Square brackets hold non-standard residues; d marks the D form. Peptide text beside a SMILES is read from it. * marks the point of attachment. ξ: configuration not given here. Cbz = O=C(OCc1ccccc1)*; ξI = CCC(C)C(N)C(=O)O

System: L1210 leukemia ip in BDF1 mice, survival T/C
Experiment: NCI In Vivo Anticancer Drug Screen. Data for tumor model L1210 Leukemia (intraperitoneal) in B6D2F1 (BDF1) mice
Conditions: endpoint: mean survival time, higher = longer survival
Procedure, shortened: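 Each compound was tested against a transplantable tumor grown in mice. The endpoint was survival, with treated animals benchmarked against vehicle controls as a simple ratio.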

[1] = dose: 12.5 mg/kg/injection, schedule: Q01DX001 (ip), vehicle: saline
[2] = dose: 12.5 mg/kg/injection, schedule: Q04DX003 (ip), vehicle: saline
[3] = dose: 100.0 mg/kg/injection, schedule: Q04DX003 (ip), vehicle: Klucel (hydroxypropylcellulose) (HPC)
[4] = dose: 200.0 mg/kg/injection, schedule: Q04DX003 (ip), vehicle: Klucel (hydroxypropylcellulose) (HPC)
[5] = dose: 400.0 mg/kg/injection, schedule: Q04DX003 (ip), vehicle: Klucel (hydroxypropylcellulose) (HPC)

Measured: T/C

O=C1C=CC(=O)c2cc(Cl)c(Cl)cc21
inactive: dose: 3.12 mg/kg/injection, schedule: Q01DX009 (ip), vehicle: saline 89 % of control | dose: 6.25 mg/kg/injection, schedule: Q01DX009 (ip), vehicle: saline 90 % of control | dose: 6.25 mg/kg/injection, schedule: Q04DX003 (ip), vehicle: saline 96 % of control | [1] 98 % of control | [2] 98 % of control | dose: 25.0 mg/kg/injection, schedule: Q01DX001 (ip), vehicle: saline 90 % of control

Cc1ccc(-n2c(=O)[nH]c3c(c2=O)C(c2ccc(Cl)cc2)C(C)(C)O3)cc1 (stereo not drawn)
inactive: [1] 97 % of control | [2] 107 % of control | dose: 25.0 mg/kg/injection, schedule: Q04DX003 (ip), vehicle: saline 101 % of control | dose: 50.0 mg/kg/injection, schedule: Q01DX001 (ip), vehicle: saline 96 % of control | dose: 50.0 mg/kg/injection, schedule: Q04DX003 (ip), vehicle: saline 90 % of control | dose: 75.0 mg/kg/injection, schedule: Q04DX003 (ip), vehicle: saline 97 % of control | dose: 113.0 mg/kg/injection, schedule: Q04DX003 (ip), vehicle: saline 94 % of control | dose: 169.0 mg/kg/injection, schedule: Q04DX003 (ip), vehicle: saline 95 % of control

CC(O)C(O)CC(/C=N/NC(=O)c1ccccc1)=N/NC(=O)c1ccccc1 (stereo not drawn)
inactive: [3] 107 % of control | [4] 115 % of control | [5] 109 % of control

CC(C)=CCN(CC=C(C)C)CCC(C(N)=O)c1cccc2ccccc12 (stereo not drawn)
inactive: dose: 6.25 mg/kg/injection, schedule: Q04DX003 (ip), vehicle: Klucel (hydroxypropylcellulose) (HPC) 93 % of control | dose: 12.5 mg/kg/injection, schedule: Q04DX003 (ip), vehicle: Klucel (hydroxypropylcellulose) (HPC) 93 % of control | dose: 25.0 mg/kg/injection, schedule: Q04DX003 (ip), vehicle: Klucel (hydroxypropylcellulose) (HPC) 98 % of control

CC(C)(O)C(=O)NCNC(=O)C(C)(C)O
inactive: dose: 100.0 mg/kg/injection, schedule: Q01DX009 (ip), vehicle: Klucel (hydroxypropylcellulose) (HPC) 102 % of control | [3] 103 % of control | dose: 200.0 mg/kg/injection, schedule: Q01DX009 (ip), vehicle: Klucel (hydroxypropylcellulose) (HPC) 97 % of control | [4] 103 % of control | dose: 400.0 mg/kg/injection, schedule: Q01DX009 (ip), vehicle: Klucel (hydroxypropylcellulose) (HPC) 97 % of control | [5] 106 % of control

NS(=O)(=O)c1ccc(C(=O)NO)cc1
inactive: dose: 100.0 mg/kg/injection, schedule: Q04DX003 (ip), vehicle: saline 100 % of control | dose: 200.0 mg/kg/injection, schedule: Q04DX003 (ip), vehicle: saline 110 % of control | dose: 400.0 mg/kg/injection, schedule: Q04DX003 (ip), vehicle: saline 102 % of control

CCn1c(C)nc2cc(N=Cc3ccc(N(CCCl)CCCl)cc3C)ccc21
inactive: dose: 87.5 mg/kg/injection, schedule: Q04DX002 (ip), vehicle: Klucel (hydroxypropylcellulose) (HPC) 102 % of control | dose: 100.0 mg/kg/injection, schedule: Q04DX002 (ip), vehicle: Klucel (hydroxypropylcellulose) (HPC) 95 % of control | dose: 175.0 mg/kg/injection, schedule: Q04DX002 (ip), vehicle: Klucel (hydroxypropylcellulose) (HPC) 102 % of control | dose: 200.0 mg/kg/injection, schedule: Q04DX002 (ip), vehicle: Klucel (hydroxypropylcellulose) (HPC) 102 % of control | dose: 350.0 mg/kg/injection, schedule: Q04DX002 (ip), vehicle: Klucel (hydroxypropylcellulose) (HPC) 98 % of control | dose: 400.0 mg/kg/injection, schedule: Q04DX002 (ip), vehicle: Klucel (hydroxypropylcellulose) (HPC) 102 % of control

CCC(C)C(NC(=O)CNC(=O)CNC(=O)OCc1ccccc1)C(=O)OC (stereo not drawn) (Cbz-Gly-Gly-[ξI]-OMe)
inactive: [3] 98 % of control | [4] 96 % of control | [5] 98 % of control
